Measured values as given in patent US9493460B2, “Diimide compounds” (UCL BUSINESS PLC, priority 2013, dated 2016).
Entries after “also recorded” stand apart in the source; their conditions may differ.

Columns and labels:
[1] = system: Mia-PaCa2 cells; experiment: Senescence β-galactosidase staining; type: cell-based, human; details: 7 days treatment
Description: FIG. 4. Micrographs showing the results of staining for evidence of cellular senescence in MiaPaCa2 cells using the β-galactosidase assay. Senescent cells are coloured blue in this procedure. Staining was performed after seven days treatments with (a) vehicle control, ×100 magnification, (b) 3.3 nM of compound 3d, ×200 magnification, (c) 6.6 nM of compound 3d, ×200 magnification, (d) 50 nM of compound 4, ×200 magnification, (e) plot of the percentage of senescent cells at the indicated concentrations of compounds 3d and 4, compared to the background senescence in this cell line (with vehicle control only). Cell counts were performed in triplicate and error bars represent estimated standard deviations.
Senescence detection and quantification experiments were carried out using the Senescence β-galactosidase staining kit (Cell Signalling Technology, MA, USA) according to the manufacturer's protocol. Briefly, 1×10^5 cells were seeded in 6-well plates in 2 ml of medium supplemented with the test compound and incubated for 24 h. Cells were washed (2 ml PBS), fixed (2% formaldehyde and 2% glutaraldehyde in PBS, 15 min, room temperature) and washed (2×2 ml PBS) before staining overnight. Senescent cells, detected by their blue pigmentation, were counted using a light microscope.
CDKN1A encodes the cyclin-dependent kinase p21WAF1 that induces replicative senescence, which is a well-studied consequence of telomerase inhibition and telomere maintenance disruption. […] Compounds 3b and 3d behaved in a similar manner to each other, with concentrations of 3-4 nM being sufficient to result in ˜50-60% of cells becoming senescent after this time-course.

[2] = system: Mia-Paca2 human pancreatic tumour xenografts; experiment: MiaPaca-2 tumour xenograft; type: in vivo, CD1 nu/nu female mice
Description: CD1 nu/nu female mice (7-8 weeks old) were housed in microisolator cages, fed with commercial mouse food (Food Harlam 2018, Madison, USA) and allowed to acclimatise for seven days before any procedure. Exponentially growing MiaPaca-2 cells (5×10^6 cell/100 uL unsupplemented RPMI) were inoculated subcutaneously into the right flank (100 uL per mice). Measurements of tumour growth were carried out at least twice a week with digital callipers until tumour masses reached an average size of 0.1 cm^3. Tumour volume was calculated by using the standard formula for determining the volume of an ellipsoid ([length×width×depth×π]/6)).
(§1) In a first experiment, mice were allocated into groups (six mice per group) as follows: control group (IV 100 uL/10g sterile PBS) and single dose of 20 mg/kg of 3d (IV 100 uL/10 g body weight in sterile PBS).
(§2) In a subsequent experiment using CD1 nu/nu female mice as described above, mice were allocated into groups (six mice per group) as follows: control group (IV 100 uL/10 g sterile PBS) and 3d at 15 mg/kg given once weekly. […] In the control group the median time to endpoint was 42 days compared to 79 days in the treated group.

[3] = system: 83 human genes involved in DNA damage signaling responses in Mia-PaCa2 cells; experiment: qPCR array, DNA damage signaling response genes; type: cell-based
Description: Following compound exposure, cells were washed twice in PBS, harvested by trypsinisation, collected by centrifugation (300 g, 5 min, 4° C.) and re-suspended in RLT buffer (Qiagen). Samples were homogenised using QIAshredder spin columns and stored at −80° C. prior to RNA extraction. Three biological replicates were performed on separate days.
The expression of (i) 83 key human genes involved in telomere replication and maintenance, and (ii) 83 human genes involved in DNA damage signaling responses, was assessed using PCR arrays (SABiosciences). Total RNA was extracted from approximately 1×10^7 Mia-PaCa2 cells treated for 24 h with compound 3d, using the RNeasy kit (Qiagen) with on-column DNaseI treatment to remove residual genomic DNA. The quality of the harvested RNA was confirmed by nanodrop spectroscopy and by analysis with a Human RT^2 RNA QC PCR Array. First-strand cDNA synthesis was performed with the RT^2 first strand kit and qPCR was carried out using the RT^2 qPCR master mix (Qiagen) using 0.5 μg total RNA per array plate in a Stratagene MX-3000P instrument (Agilent, USA). Relative gene expression was determined by the ΔΔCT method using the web-based RT^2 Profiler™ PCR Array Data Analysis software (SABiosciences). Data were normalized to the geometric mean of five housekeeping genes (RPLP10, β-actin, B2M, GAPDH and HPRT1).
Various quadruplex-stabilising agents are known to induce pronounced DNA damage responses. We therefore next assessed the effect of 3d on the transcription of genes associated with DNA damage response and repair pathways. For these pathways the effect of a cytotoxic dosage of 3d (160 nM) on Mia-PaCa2 cells was also tested to assess the correlation between compound-induced DNA damage and cell killing. […] The latter two groups appeared to reflect a dynamic switch in the cellular response from low-level growth inhibition up to 40 nM of 3d to cytostatic then cytotoxic effects at 80 nM and 160 nM respectively.
Instead the response was dominated by genes with roles in growth arrest and more general stress responses.

[4] = system: Panc1 (pancreatic) cells; experiment: SRB growth inhibition assay, 96 hr exposure, Panc1; type: cell-based, human; details: Homo sapiens, PANC-1, 96 h exposure
How it was run: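 SRB growth inhibition was measured after 96 h exposure to 2-fold serial dilutions of compound, with cells maintained at 37 °C in 5% CO2 and medium containing 10% FBS. Absorbance at 540 nm was expressed as a percentage of untreated control wells. IC50 was derived from these values.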

[5] = Tolerability and body weight in xenograft study; type: in vivo
Description: as §1, §2

## CN1CCN(CCCNc2cc3c4c(c(NCCCN5CCN(C)CC5)cc5c4c2C(=O)N(CCCN2CCOCC2)C5=O)C(=O)N(CCCN2CCOCC2)C3=O)CC1 [Compound 3d, 4,9-bis((3-(4-methylpiperazin-1-yl)propyl)amino)-2,7-bis(3-morpholinopropyl)benzo[lmn][3,8]phenanthroline-1,3,6,8(2H,7H)-tetraone]
[1]
  induction of senescence (in words): strong induction of senescence
  potency as inducer of cellular senescence relative to compound 4: ~10 fold
[2]; 15 mg/kg once weekly
  antitumour response: sustained antitumour response
[2]; 15 mg/kg once weekly, control group 42 days
  median time to endpoint: 79 days
[2]; 15 mg/kg once weekly, of six mice
  mice with a complete response, tumour free at 136 days: two
[2]; single dose 20 mg/kg IV
  tumour growth compared to untreated controls: significant growth delay
[3]; 24 h
  expression of DNA damage checkpoint genes ATM and ATR: no significant induction or repression
[3]; Mia-PaCa2 cells, data not shown
  induction of γ-H2AX: no apparent induction; also recorded: do not appear to induce these particular changes
[3]; cytotoxic concentrations
  expression of CDKN1A, DDIT3 and GADD45G: strongly up-regulated
[3]; dose-dependent
  expression of the PARP gene: down-regulated
[3]; lower concentrations
  expression of CDKN1A, DDIT3 and GADD45G: strongly down-regulated
[3]; of 83 genes, 20, 40, 80 or 160 nM, 24 h
  number of DNA damage response genes significantly increased or decreased greater than 2-fold: 16 genes
[4]
  IC50: 10 to 20 nM
[5]; 15 mg/kg once weekly
  tolerability of therapy: well tolerated
[5]; single dose 20 mg/kg or 15 mg/kg once weekly
  bodyweight loss: without any significant bodyweight loss
